Assay results taken from patent publication US10308938B2, “Compositions and methods to activate or inhibit toll-like receptor signaling” (priority 2014, dated 2019).
Entries after “also recorded” stand apart in the source; their conditions may differ.

Legend:
CD4^+ T cells [1] = assay: Anergy-related gene expression, TaqMan real-time PCR; format: cell-based, human
Excerpt: (§1) Quantification of mRNA expression levels by RT-PCR. RNA was isolated using QIAGEN RNeasy Micro Plus Kit (QIAGEN, Valencia, Calif.), following manufacturer's guidelines and converted to cDNA by reverse transcription (RT) with random hexamers and Multiscribe RT (TQMN, Reverse Transcription Reagents; Applied Biosystems, Foster City, Calif.). For mRNA gene expression assays, probes were purchased from Applied Biosystems (Table 2) and the reactions were set up following manufacturer's guidelines and run on a StepOne Real-Time PCR System (Applied Biosystems). Values are represented as the difference in Ct values normalized to β2-microglobulin for each sample as per the following formula: Relative RNA expression=(2^−dCt)×1000.
To examine whether TLR7 stimulation and subsequent NFAT dephosphorylation induces the expression of anergy-related genes, CD4^+ T cells were incubated for 2-16 hours with IMQ in the presence or absence of the TLR7 inhibitory sequence IRS661 and RNA was isolated to examine the hypothesis that TLR7 engagement induced expression of anergy-related genes previously described. As a control for anergy-related gene expression, CD4^+ T cells were incubated with either ionomycin and PMA or ionomycin alone. […] The effect observed in the regulation of these genes was TLR7-specific, as preincubation of CD4^+ T cells with IRS661 before IMQ treatment abrogated the increase in anergy-related gene expression.

HIV-1NL-D = assay: HIV-1 in vitro infection of CD4+ T cells; format: cell-based; details: treatment before infection, MOI 0.001
Description: Preparation of HIV-1 virus stocks. HIV-1 proviral DsRed-tagged DNA pNL-D (derived from the prototype HIV-1 proviral DNA pNL432) was kindly provided by Dr. Yasuko Tsunetsugu-Yokota. 293T cells were used to prepare viral stocks following published protocols with minor modifications. In brief, 293T cells were plated at 0.5×10^6/well in 12-well plates and transfected with 2 μg pNL-D using Lipofectamine 2000 (Invitrogen) for 48 hours. Culture supernatant was treated with benzonase (1U/ml) for 30 minutes at 37 C, cleared by filtration and titrated on 293T cells. Stocks were stored at −80 C.
HIV-1 in vitro infection. CD4^+ T cells were stimulated with anti-CD3 (1 μg/ml) and anti-CD28 (1 μg/ml) for 48 hours and subsequently infected with HIV-1 at a MOI of 0.001 (concentration within the physiological range). Viability and cytokine secretion was measured every 48 hours for a total of 11 days after infection.
For HIV-1 infection on TLR7-deficient cells, CD4^+ T cells were stimulated as above and transduced with the corresponding lentiviral particles. 48 hours after transduction, the cells were infected with HIV-1NL-D at a MOI of 0.001. Viability and frequency of HIV-1-infected cells were measured at different time points by LIVE/DEAD cell dye staining and fixation with 1% PFA (to avoid DsRed signal loss). For intracellular staining after infection, the cells were restimulated with PMA and Ionomycin in the presence of GolgiStop for 4 hours and the staining was performed as recommended by Grupillo et al.

CD4^+ T cells [2] = assay: Expression of activation markers on stimulated CD4+ T cells; format: cell-based, human; details: 48 hours after activation
Excerpt: (§2) Cell activation and intracellular staining.

CD4^+ T cells [3] = assay: Intracellular calcium measurement (INDO-1AM); format: cell-based, human
Description: Intracellular calcium measurements. Ex vivo isolated CD4^+ T cells were labeled with 5 μM INDO-1AM for one hour at 37° C. in PBS, 1 mM Ca^2+. Cells were washed to remove traces of INDO-1AM, resuspended in buffer at 10^6 cells/ml and incubated for 30 minutes at 37° C. before analysis. When necessary, IRS661 was added at the indicated concentration during the 30 minute incubation. For acquisition, the sample was acquired for approximately 3 minutes to obtain basal levels of calcium and subsequently IMQ or other reagents were added at the indicated concentrations. Samples were acquired for a minimum of 10 minutes on a BD Fortessa instrument and analysed with FlowJo software.

CD4^+ T cells [4] = assay: Cytokine gene expression in stimulated CD4+ T cells, TaqMan real-time PCR; format: cell-based, human; details: 12 hours after activation
Excerpt: as §1

CD4^+ T cells [5] = assay: Cytokine secretion by stimulated CD4+ T cells, ELISA; format: cell-based, human; details: day 3 after stimulation
Excerpt: as §2
(§3) Enzyme-linked immunosorbent assay.

CD4^+ T cells [6] = assay: Conversion into regulatory T cells (Foxp3 expression, IL-10 secretion); format: cell-based, human
Excerpt: as §2, §3

CD4^+ T cells [7] = assay: Proliferation of CFSE-labeled CD4+ T cells stimulated with anti-CD3 and anti-CD28 in the presence of TLR ligands; format: cell-based, human; details: compared to control
Excerpt: Cell isolation and FACS sorting of T cell populations. Peripheral blood mononuclear cells (PBMC) were isolated from healthy donors by Ficoll Hypaque gradient centrifugation. Total CD4^+ T cells were isolated by negative selection using CD4^+ T cell isolation kit (StemCell Technologies, Vancouver, BC) and stained for fluorescence-activated cell sorting (FACS) with the following antibodies: anti-CD45RO (clone UCHL1), CD45RA (clone H1100), CD25 (clone M-A251) (all from BD Biosciences) and CD127 (clone eBioRDR5) from eBioscience (San Diego, Calif.). The Treg (CD4^+CD25^hiCD127^low/neg) memory T cell (CD4^+CD45RA^−CD45RO^+CD25^low/neg+) and naïve T cell (CD4^+CD45RA^+CD45RO^−CD25^low/neg) populations were sorted on a FACS Aria (BD Biosciences). Unless specified, CD4^+ T cells used in the experiments were Treg-depleted CD4^+ T cells and they were sorted as CD4^+CD25^pos/lowCD127^+. The purity of the sorted CD4^+ T cell population was >98% as assessed by CD3 and CD4 staining after sort. CD14^+ cells were isolated by positive selection using EasySep™ Human CD14 Positive Selection Kit (StemCell Technologies).
as §2
While examining the costimulatory role of TLR on CD4^+ T cells, it was unexpectedly discovered that entry of CD4^+ cells into cell cycle with T cell receptor cross-linking and anti-CD28 was blocked by TLR7 engagement. Specifically, CD4^+ T cells were stimulated with anti-CD3 and anti-CD28 in the presence of different TLR agonists followed by analysis of proliferation and cytokine secretion.

CD4^+ T cells [8] = assay: Intracellular cytokine staining after PMA and ionomycin restimulation; format: cell-based, human; details: increasing doses of IMQ; day 4, 4 hour PMA and ionomycin
Description: Cell activation and intracellular staining. T populations were stimulated with 1 μg/ml anti-CD3, 1 μg/ml anti-CD28 and 10 U/ml IL-2 in the presence or absence of TLR ligands. […] For both extracellular and intracellular stainings, LIVE/DEAD reagent (Molecular Probes) was used to exclude dead cells before surface staining. […] Samples were run on a BD Fortessa instrument and analyzed with FlowJo (TreeStar).

CC(C)Cn1cnc2c(N)nc3ccccc3c21 [Imiquimod]
expression of Sirt1, Itch, Cblb, Dgka, Egr2 and Egr3 (CD4^+ T cells [1]; IMQ treatment, 2 hours): all of them but Egr2 showed a significant upregulation
expression of anergy-related genes (CD4^+ T cells [1]; NFAT1-deficient cells vs non-target transduced, IMQ 2 hours): failed to upregulate
expression of 12 anergy-related genes (CD4^+ T cells [1]; compared to control and PMA and ionomycin): Ten of the 12 anergy-related genes examined were significantly upregulated
frequency of HIV-1-infected CD4+ T cells (HIV-1NL-D): directly correlated with the concentration of IMQ used
expression of activation marker CD25 (CD4^+ T cells [2]): inhibited
expression of activation marker CD69 (CD4^+ T cells [2]; listed as IMQ): inhibited; also recorded: decrease
expression of activation marker CD137 (CD4^+ T cells [2]; listed as IMQ): inhibited; also recorded: decrease
duration of the increase in intracellular calcium concentration (CD4^+ T cells [3]): at least 20 minutes
intracellular calcium concentration (CD4^+ T cells [3]; INDO-1AM ratio over time): significant and sustained (maintained for at least 20 minutes, FIGS. 23A and 23B) increase
induction of IFNγ gene expression (CD4^+ T cells [4]): significant decrease
induction of IL-2 gene expression (CD4^+ T cells [4]): significant decrease
induction of IL-4 gene expression (CD4^+ T cells [4]): significant decrease
IFNγ secretion (CD4^+ T cells [5]): dramatically reduced
IL-2 secretion (CD4^+ T cells [5]): decrease
IL-4 secretion (CD4^+ T cells [5]): decrease
IL-17 secretion (CD4^+ T cells [5]): dramatically reduced
IFNγ secretion (CD4^+ T cells [5]; listed as IMQ): decrease
IL-17 secretion (CD4^+ T cells [5]; listed as IMQ): decrease
IL-10 secretion (CD4^+ T cells [6]; ELISA day 3): neither Foxp3 expression (FIG. 11B-11C) or IL-10 secretion was increased
Foxp3 expression (CD4^+ T cells [6]; day 4): neither Foxp3 expression (FIG. 11B-11C) or IL-10 secretion was increased
proliferation of CD4+ T cells (frequency of proliferating cells) (CD4^+ T cells [7]): dramatically reduced
frequency of cytokine-producing cells (CD4^+ T cells [8]): diminished in a dose-dependent manner
